Experiments:
[1] = test system: NBT II cells; assay: In vitro wound assay (migration of NBT II cells); type: cell-based, rat
Method: FIGS. 1A and 1B show the migration of epithelial NBT II cells under varying conditions. […] Twenty-four hours after plating, the confluent cell monolayer was scratched as described in the Examples. EGF (100 ng/mL) or Ultroser G (2%) were added. Wound closure was documented by photography. The calibration bar indicates 80 pn. Migration Assays-For in vitro wound assays, NBT II cells were plated at a density of 7×10^4 cells/cm^2. After 24 hours the confluent monolayer was scratched with a pipette tip to create a cell free area, growth factors were added, and wound closure was documented by photography. For scatter assays, cells were plated at a cell density of 1×10^4 cells/cm^2. Growth factors were added after 24 hours, and the morphology of cells and the dispersion of small colonies were documented by photography. Quantification of migration was performed by counting single cells with fibroblastoid migration morphology compared to cells in groups with epithelial morphology in different, randomly chosen microscopic fields. 1000 cells per dish were counted. All migration assays were performed in triplicate. Tyrosine kinases (TK), mitogen-activated protein kinase (MAPK) or phosphatidylinositol-3-kinase (Pl3K), were inhibited by Genistein (250 μM; Biomol), added one hour before addition of the growth factors. As a control, the solvent DMSO was used. DNA synthesis was inhibited by the specific inhibitor of DNA polymerase, α Aphidicolin (1.5 μM; Serva) 1 hour before adding the growth factors. Migration of epithelial cells in tissue culture represents in many aspects a model system of the epithelial-mesenchymal transition ([…], et al. (1994) Int. Rev. Cytol. 155, 49-9). The rat bladder carcinoma cell line NBT II (Toyoshima, et al. (1971) J. Nat. Cancer Inst. 47, 979-985) was used, since certain growth factors and components of the extracellular matrix (ECM) induce migration of these cells (Valles, et al. (1990) Proc. Natl. Acad. Sci. USA 87, 1124-1128; Tchao, R. (1982) Cell Motil. 4, 333-341; Tucker, et al. (1990) Cancer Res. 50, 129-137).

[2] = test system: free, uncomplexed β-catenin; assay: Affinity precipitation of free β-catenin with GST-E-cadherin cytoplasmic fusion protein; type: cell-based, rat; conditions: EGF 100 ng/mL
Method: NBT II cells were plated at a density of 1×10^4 cells/cm^2. Twenty-four hours later EGF (100 ng/mL) was added for the indicated time intervals. 30 minutes before lysis Na-orthovanadate (1 mM) was added. Subsequently affinity precipitations were performed with 5 μg of a GST/E-cadherin cytoplasmic protein or GST in a three-fold molar excess. Proteins were separated by SDS-PAGE, and the levels of free, uncomplexed β-catenin were analyzed by Western blotting with an anti-β-catenin-antibody (top). […] Note that in comparison to FIG. 2, cells were pretreated for only 30 minutes with Na-orthovanadate. Arrows indicate the proteins of interest. Molecular mass standards in kilodaltons are shown on the left.
NBT II cells infected with the empty vector pLXSN (left) or human PTP LAR (right) were plated at 1×10^4 cells/cm^2 and stimulated after 24 h with EGF (100 ng/mL) for the indicated time intervals. Na-orthovanadate pretreatment was omitted to avoid irreversible inhibition of protein tyrosine phosphatase activity. Cells were lysed and in vitro associations were performed with 5 μg of the GST-E-cadherin cytoplasmic protein or GST in a three-fold molar excess. Proteins were separated by SDS-PAGE, and the levels of free, uncomplexed β-catenin were analyzed by Western blotting with an anti-β-catenin antibody (top). […] Arrows indicate the proteins of interest. […]

[3] = test system: β-catenin and plakoglobin; assay: Tyrosine phosphorylation of β-catenin and plakoglobin in migrating NBT II cells (immunoprecipitation, Western blot); type: cell-based, rat; conditions: pretreatment with 1 mM Na-orthovanadate
Method: NBT II cells were plated at a density of 1×10^4 cells/cm^2. Twenty-four hours later growth factors were added to induce migration (EGF: 100 ng/mL; aFGF: 30 ng/mL including 50 μg/mL heparin; Ultroser G: 2%). Ninety minutes before lysis, Na-orthovanadate (1 mM) was added (right) or not (left). As a positive control, cells were treated for 10 minutes with pervanadate. After lysis the cadherin/catenin complex was immunoprecipitated and precipitates were separated by SDS-PAGE. Tyrosine phosphorylation levels were analyzed by Western blotting with an anti-phosphotyrosine antibody (top). The membranes were reprobed with specific antibodies to E-cadherin (middle) or the catenins (bottom) to assure equal amounts of precipitated proteins. Highly tyrosine phosphorylated β-catenin (as hereafter pervanadate treatment) was not efficiently immunodecorated in the reblot. Arrows indicate the proteins of interest. Molecular mass standards in kilodaltons are shown on the left.
Transient Expression, Cell Lysis, and Immunoprecipitation—Transient transfection of human 293 embryonic kidney cells was performed as described (Chen, et al. (1987) Mol. Cell. Biol. 7, 2745-2752, hereby incorporated herein by reference in its entirety, including any drawings, figures, or tables). For biochemical analysis, NBT II cells were plated at a density of 1×10^4 cells/cm^2 at the day before lysis. […]

[4] = test system: NBT II cells; assay: Scatter assay of NBT II cells after EGF treatment; type: cell-based, rat; conditions: ectopic expression, about twice the PTP LAR expression of parental cells; EGF 100 ng/mL
Method: FIGS. 7A and 7B show a scatter assay of NBT II pLXSN and NBT II hPTP LAR cells. In FIG. 7A, NBT II cells infected with the empty vector pLXSN (left) or human PTP LAR (right) were plated at 1×10^4 cells/cm^2 and stimulated 24 h later with EGF (100 ng/mL) as indicated. After 7 h, the migration morphology was documented by photography.
To this end, 1000 cells per dish from randomly chosen microscopic fields were counted; assays were performed in triplicate. A cell was judged as a migrating cell when it had changed from a cobblestone-like, epithelial morphology to a migrating, fibroblastoid phenotype.
Migration Assays—For in vitro wound assays, NBT II cells were plated at a density of 7×10^4 cells/cm^2. After 24 hours the confluent monolayer was scratched with a pipette tip to create a cell free area, growth factors were added, and wound closure was documented by photography. For scatter assays, cells were plated at a cell density of 1×10^4 cells/cm^2. Growth factors were added after 24 hours, and the morphology of cells and the dispersion of small colonies were documented by photography. Quantification of migration was performed by counting single cells with fibroblastoid migration morphology compared to cells in groups with epithelial morphology in different, randomly chosen microscopic fields. 1000 cells per dish were counted. All migration assays were performed in triplicate. […]

[5] = test system: NBT II cells; assay: DNA-synthesis and proliferation rate of NBT II-hPTP LAR cell lines; type: cell-based, rat; conditions: ectopic expression in NBT II cells
[6] = test system: NBT II cells; assay: Tumor formation in nude mice; type: in vivo, Swiss nude mice; conditions: NBT II hPTP LAR cells injected subcutaneously into flank, 2×10^6/50 μL
Method: NBT II cells, infected with the empty vector pLXSN (filled triangle) or human PTP LAR (filled square), were injected (2×10^6/50 μL) subcutaneously into the flank region of Swiss nude mice. Tumor formation was monitored.
Tumor formation in Nude Mice—NBT II cells were resuspended at a cell density of 2×10^6/50 μL in MEM and injected subcutaneously into the flank region of Swiss nude mice (IGR Villejuif, Paris, France). Tumor formation was monitored by measuring the width (W) and length (L) of the tumors with W<L. The tumor volume was calculated according to the formula (W^2×L×π/6). Assays were performed at least in triplicate.

[7] = inhibition of PI3K or MAPK, concentration not given

Compound: O=c1c(-c2ccc(O)cc2)coc2cc(O)cc(O)c12 [Genistein]
- effect on cell migration (wound closure) ([1]; Genistein 250 μM, added one hour before the growth factors, inhibition of tyrosine kinases): completely abolished cell migration

Compound: EGF: growth factor used to induce epithelial cell migration [reference compound]
- free pool of β-catenin ([2]; NBT II cells): increase of the free pool of β-catenin

Compound: [Na+].[Na+].[Na+].[O]=[V]([O-])([O-])[O-] [Na-orthovanadate]
- tyrosine phosphorylation of β-catenin and plakoglobin [3]: increased tyrosine phosphorylation

Compound: O=c1cc(N2CCOCC2)oc2c(-c3ccccc3)cccc12 [ly295002]
- effect on cell migration (wound closure) [1, 7]: completely abolished cell migration

Compound: COc1cccc(-c2cc(=O)c3ccccc3o2)c1N [PD98059]
- effect on cell migration (wound closure) [1, 7]: completely abolished cell migration

Compound: hPTP LAR: full-length human PTP LAR ectopically expressed in NBT II cells by retroviral gene transfer (pLXSN)
- EMT and motility relative to vector-control infected cell lines (NBT II pLXSN) [4]: about 40%
- tyrosine phosphorylation and increase of the free pool of β-catenin ([2]; NBT II-hPTP LAR-expressing cells, no Na-orthovanadate): neither tyrosine phosphorylation, nor an increase in the free pool of β-catenin were detectable
- DNA-synthesis and proliferation rate [5]: not affected
- tumor growth in comparison to NBT II pLXSN cells [6]: significantly reduced tumor growth

Compound: C[C@@]1(CO)[C@H](O)CC[C@@]2(C)[C@H]1CC[C@H]1C[C@@H]3C[C@@]12CC[C@]3(O)CO [Aphidicolin]
- effect on cell migration (wound closure) ([1]; Aphidicolin 1.5 μM, added 1 hour before the growth factors, inhibition of DNA-synthesis): did not interfere with migration

Source: patent US20090074722A1, “Products and methods for treating PTP lar diseases” (MAX-PLANCK-GESELLSCHAFT ZUR, priority 1999, published 2009)
